Test: Tebuconazole concentration in the sprayed composition, determined by chromatograph
Assay type: physicochemical
Protocol: After the storage period of two weeks, each of the concentrates A to E was diluted with water. 10 liters of spraying compositions were prepared using hard water (CIPAC standard water D, 342 ppm) in 3 different concentrations: 0.5, 1, and 2 times the recommended spraying concentration for each concentrate.
Each diluted composition was sprayed using a personal spraying machine and using one spray nozzle equipped with 200 mesh screen. A sample of each composition was collected leaving the spraying machine after spraying.
Further, every sample of the spray compositon was analyzed in a chromatograph to determine the concentration of tebuconazole in the composition as it would be reaching the locus to be treated. […]

Compound: CC(C)(C)C(O)(CCc1ccc(Cl)cc1)Cn1cncn1 (stereo not drawn) [Tebuconazole]
- Tebuconazole concentration (0.5% dilution, 0 hr): 2064 ppm
- Tebuconazole concentration (0.5% dilution, 1 hr): 2039 ppm
- Tebuconazole concentration (0.5% dilution, 2 hr): 2009 ppm
- Tebuconazole concentration (0.5% dilution, 3 hr): 1969 ppm
- Tebuconazole concentration (0.5% dilution, 4 hr): 1924 ppm
- Tebuconazole concentration (1.0% dilution, 0 hr): 4150 ppm
- Tebuconazole concentration (1.0% dilution, 1 hr): 4123 ppm
- Tebuconazole concentration (1.0% dilution, 2 hr): 4091 ppm
- Tebuconazole concentration (1.0% dilution, 3 hr): 4052 ppm
- Tebuconazole concentration (1.0% dilution, 4 hr): 4007 ppm
- Tebuconazole concentration (2.0% dilution, 0 hr): 8300 ppm
- Tebuconazole concentration (2.0% dilution, 1 hr): 8272 ppm
- Tebuconazole concentration (2.0% dilution, 2 hr): 8237 ppm
- Tebuconazole concentration (2.0% dilution, 3 hr): 8197 ppm
- Tebuconazole concentration (2.0% dilution, 4 hr): 8152 ppm

From patent publication US9426983B2, “Agrochemical composition and method for preparing the same” (priority 2007, dated 2016)
